Columns and labels:
[1] = Intravenous and oral pharmacokinetics in Wistar rats; assay type: in vivo; conditions: for plasma exposure (AUC, C max) as compared to Rivaroxaban: Wistar rats, IV 1 mg/kg and PO 10 mg/kg
Experimental: On the day before administration of the substance, a catheter for obtaining blood is implanted in the jugular vein of the experimental animals (male Wistar rats, body weight 200-250 g) under Isofluran® anesthesia.
Blood samples (8-12 time points) are taken through the catheter sequentially over the course of 24 h after administration of the substance. The administration volume is 10 ml/kg for oral and 1 ml/kg for IV in male Wistar rats. Intravenous administration is via a formulation of 2% N—N Dimethyl acetamide/ethanol 10%/PEG400 (30%)/water for IV injection (58%) and via Tween80/PEG400/sterile water in the case of oral administration. Removal of blood is after 0.08, 0.25, 0.5, 1, 2, 3, 4, 6, 8 and 12 hours in the case of IV and, blood withdrawn after 0.25, 0.5, 1.0, 2, 3, 4, 6, 8 and 12 hours for oral administration.
Plasma is obtained by centrifuging the samples in heparinized tubes. IS containing Acetonitrile is added to a defined plasma volume per time point to precipitate proteins. After centrifugation, compound formula (B) and, where appropriate, known cleavage products of the compound formula (B) in the supernatant are determined quantitatively using a suitable LC/MS-MS method.
The measured plasma concentrations are used to calculate pharmacokinetic parameters of the test substance and of the active ingredient compound (A) liberated there from, such as AUC, Cmax, T½ (half-life) and CL (clearance).
Acetonitrile containing IS is added to the study samples, calibration samples and QCs, and the protein is precipitated using acetonitrile. Vortexed and centrifuged at 4000 rpm and the supernatant is injected by LC-MS/MS (API 4000, AB Sciex). Chromatographic separation is carried out on an Shimadzu UFLC. The injection volume is 10 μl. The separation column used is a Phenomenex Gemini NX 4.6×5μ. 100 mm, adjusted to a temperature of 30° C. […]
The plasma concentration/time plots determined are used to calculate the pharmacokinetic parameters such as AUC, Cmax, MRT (mean residence time), t½ (half life) and CL (clearance) employing the validated pharmacokinetic calculation programs.

[2] = In vitro liver microsomal stability assay (rat); assay type: in vitro ADME; conditions: rat liver microsomes
Experimental: Liver microsomal stability assays are conducted at 1 mg per mL liver microsome protein with an NADPH in phosphate buffer (100 mM, pH 7.4). Test compounds (compound of formula B of the invention) are prepared as solutions in 20% methanol-water and added to the assay mixture (final assay concentration 1 μM) and incubated at 37° C. Aliquots (100.μ·L) are taken out at times 0, 15, and 30 minutes, and diluted with ice cold acetonitrile containing IS (200.mu·L) to stop the reactions. Samples are centrifuged at 10,000 RPM for 5 minutes to precipitate proteins. Supernatants are transferred to micro centrifuge tubes and stored at −20° C. for analysis of LC/MS/MS. The percent parent remaining of the test substance is calculated as Ratio of peak area at each time point to peak area ratio at zero min, multiplied by 100. The compound formula (B) is converted to Rivaroxaban in microsomal assay.

[3] = In vitro stability in rat plasma; assay type: in vitro ADME; conditions: conversion to rivaroxaban seen from zero min
Experimental: The final concentration of the test compound in the assay is 5 micromolar. […] C. The 100 microliters of aliquot at time point was removed and diluted with ice cold acetonitrile containing IS (200.mu·L) to stop the reactions. Samples are centrifuged at 10,000 RPM for 5 minutes to precipitate proteins. Supernatants are transferred to micro centrifuge tubes and stored at −20° C. for analysis of LC/MS/MS. The percent parent remaining of the test substance is calculated as ratio of peak area at each time point to peak area ratio at zero min, multiplied by 100.
API 4000, ESI Agilent 1100 column: Gemini Nx 100 mm×4.6 mm 5.1; column temperature: 30° C.; eluent A: 0.1% formic acid in water, eluent B: acetonitrile; gradient: 0-2.5 min 95% A, 5% B; 2.5-2.6 min 5% A, 95% B; 2.6-4.2 min 95% A, 5% B; flow rate: 0.8 ml/min; ESI. Q1:464.098, Q3:144.255

plasma exposure (AUC, C max) as compared to Rivaroxaban [1]: increased exposure
plasma exposure (AUC, C max) as compared to Rivaroxaban ([1]; listed as Test product): higher
detectability of test substance in plasma ([1]; after i.v. administration, at the first measurement point): no longer detectable in plasma
Observation (metabolism; for Test Product: of the formed rivaroxaban) [2]: shown metabolism
amount of test product detected ([2]; metabolised to rivaroxaban from zero min): min. Neglible
Conversion: amount of test product detected [3]: min. Neglible
SMILES: O=CN(C[C@H]1CN(c2ccc(N3CCOCC3=O)cc2)C(=O)O1)C(=O)c1ccc(Cl)s1 [Compound formula B, 5-chloro-N-formyl-N-({(5S)-2-oxo-3-[4-(3-oxomorpholin-4-yl)phenyl]-1,3-oxazolidin-5-yl}methyl)thiophene-2-carboxamide]

— patent US9359341B2, “Aldehyde derivative of substitute oxazolidinones” (WANBURY LTD., priority 2012, dated 2016)
